Drawing on the METLIN SMRT retention time set (Domingo-Almenara et al. 2019), this text covers RP-LC retention time for 58 compounds.

This data set in a line: gradient 5% acetonitrile 3 min, to 50% in 2 min, to 85% in 15 min, held 3 min, 100 µL/min. The note with it: column: Zorbax Extend-C18 2.1 x 50 mm; eluents: water / acetonitrile, 0.1% formic acid. The method in brief:
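A Zorbax Extend-C18 column (2.1 × 50 mm, 1.8 μm) run at 100 μL/min with water and acetonitrile, both containing 0.1% formic acid, separated mixtures of ~100 pure standards. The HPLC was coupled to a quadrupole time-of-flight mass spectrometer operated in positive and negative ionization mode, with dead and dwell volumes of 40 μL and 900 μL. Each retention time was taken from a computationally picked adduct peak that was then manually inspected.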
Regarding `COc1ccc(C2(CNC(=O)C(=O)Nc3ccc(N4CCCC4=O)c(C)c3)CCCC2)cc1`, the RP-LC retention time worked out at 909 s. For `O=C(CSc1nc2ccccc2nc1SCC(=O)N1CCCC1)N1CCCC1`, the RP-LC retention time came to 743 s. Compound `Cc1ncsc1CN1CCCC(c2nncn2-c2ccccc2)C1` (stereo not drawn) came in with an RP-LC retention time of 496 s. The compound `CCOC(=O)C1C(=O)NC(N2CCc3ccccc32)=NC1c1ccco1` (stereo not drawn) had an RP-LC retention time of 690 s. Compound `CC1(C(=O)NCc2ccccc2)CN(S(C)(=O)=O)CC(=O)N1Cc1ccc(F)cc1` (stereo not drawn) had an RP-LC retention time of 779 s. For the compound `O=S(=O)(c1cccn2cnnc12)N(Cc1ccc(F)cc1)c1ccc(F)c(F)c1`, the RP-LC retention time came to 887 s.

Consider `CC(C)c1ccc2c(c1)-c1ccccc1S(=O)(=O)N2CC(=O)N1CC(=O)Nc2ccccc21`, for which the RP-LC retention time is 927 s. For `CCc1nn2c(CNC(=O)c3ccccc3Br)c(-c3ccccc3)nc2s1`, the RP-LC retention time was 903 s. For the compound `O=C(NCCN1CCOC(c2ccccc2)C1)c1ccc(Cl)c(Cl)c1` (stereo not drawn), the RP-LC retention time was found to be 610 s.

In the case of `CC(C)c1nnc(C2CN(C)CC23CCN(Cc2cccc(C(F)(F)F)c2)CC3)o1` (stereo not drawn), the RP-LC retention time was found to be 578 s.

With `O=S(=O)(c1ccc2nncn2c1)N(Cc1ccc(F)cc1)c1ccccc1`, the RP-LC retention time was 846 s. Compound `Cc1oc(-c2ccccc2)nc1Cn1cnc2nc3c(cc2c1=O)CC(C)CC3` (stereo not drawn) returned an RP-LC retention time of 1010 s. Next, `O=C(Cn1cccc1-c1nc(-c2ccc3c(c2)OCO3)no1)Nc1ccc(F)c(Cl)c1`: 1030 s; `COc1cc(OC)c(NC(=O)N2CCCC(C)(C(=O)NCc3ccccc3)C2)cc1Cl` (stereo not drawn): 897 s.

For the compound `Cc1ccc(NC(=O)CSc2nc(N3CCCCC3)nc3ccccc23)cc1Cl`, the RP-LC retention time amounted to 852 s. Compound `Cc1cccc(OCCc2noc(C3CN(Cc4ccc(C)s4)C3)n2)c1` gave an RP-LC retention time of 761 s. As to `CCOC(=O)CNC(=O)Nc1cc(F)c2nc(N3CCCC3)ccc2c1`, the RP-LC retention time amounted to 590 s. `O=C(NCc1cccs1)C1CCCN(C(=O)c2cc(-c3ccncc3)n[nH]2)C1` (stereo not drawn) returned an RP-LC retention time of 574 s. As for `Cc1ccc(S(=O)(=O)N2CCC(CC(=O)NCCN(C)Cc3ccccc3)CC2)cc1`, the RP-LC retention time came out at 683 s. As for `O=C(NC1CCCCC1)N1CCCC(c2nnnn2-c2ccccc2)C1` (stereo not drawn), the RP-LC retention time worked out at 818 s. Regarding `O=C(Cn1nc2c(N3CCCCCC3)nccn2c1=O)Nc1ccc2c(c1)OCCO2`, the RP-LC retention time was 668 s. The compound `CN1CCN(CCNC(=O)Cn2c(=O)c3cccn3c3ccc(F)cc32)CC1` registered an RP-LC retention time of 578 s. As for `CC(C)Oc1cccc(NC(=O)C2CCN(S(C)(=O)=O)c3cc(Cl)ccc3O2)c1` (stereo not drawn), the RP-LC retention time was 998 s. Compound `COc1ccc(OC)c(NC(=O)C2CCN(S(=O)(=O)c3ccc4c(c3)sc(=O)n4C)CC2)c1` showed an RP-LC retention time of 840 s. As to `Cc1cccc(S(=O)(=O)N2CCN(c3nc4ccncc4n(CC(C)C)c3=O)CC2)c1`, the RP-LC retention time was found to be 778 s.

`O=S(=O)(NCC(O)C1CCCCC1)c1cccc2ccccc12` (stereo not drawn) gave an RP-LC retention time of 902 s.

Turning to `O=C(C1CCN(c2nc3ccc(-c4cccs4)nc3s2)CC1)N1CCCCC1`, the RP-LC retention time turned out to be 911 s. `Cc1nc(-c2cn(C)c3ncccc23)sc1C(=O)NCc1ccc(C(F)(F)F)cc1` came in with an RP-LC retention time of 981 s. Then `CC(C)NC(=O)N(C1CC1)C1CCOC2(CCN(C(=O)C3CCCC3)CC2)C1` (stereo not drawn), with 814 s; and `CCCn1cc(CCNS(=O)(=O)c2ccc(F)c(C)c2)c2cccnc21`, with 893 s; and `COCCCNC(=O)N1CCCC1c1ccccc1Cl` (stereo not drawn), with 797 s. The compound `Cc1cccc(NC(=O)CSc2cc(N3CCN(c4ccccc4F)CC3)ncn2)c1C` yielded an RP-LC retention time of 1130 s. Next, `Cc1ccc(CNC(=O)C2(C)CN(S(=O)(=O)c3ccccc3)CC(=O)N2C2CC2)cc1` (stereo not drawn): 783 s; `Cc1nn(C)c(=O)c2cc(S(=O)(=O)NC(C)c3ccccc3)cn12` (stereo not drawn): 801 s. Regarding `Cc1nn(-c2ccccc2)c(C)c1S(=O)(=O)N1CCC(C(=O)N2CCCc3ccccc32)CC1`, the RP-LC retention time was found to be 1040 s. As to `Cn1cnc(S(=O)(=O)N2CCC(C(=O)NCc3ccc(F)cc3)CC2)c1`, the RP-LC retention time amounted to 670 s. Compound `c1ccc(-c2nc(C3CCNC3)no2)cc1` (stereo not drawn) showed an RP-LC retention time of 591 s.

Compound `CCOC(=O)c1cnc2ccc(OCC)cc2c1NCCN(C)C` came in with an RP-LC retention time of 560 s. In turn, `Cc1nnc2n1CCN(C(=O)c1ccc(OC(F)(F)F)cc1)C2` had an RP-LC retention time of 606 s. Next, `Cc1nn(-c2ccccc2)c(C)c1S(=O)(=O)N1CCC(C(=O)Nc2cc(F)ccc2F)CC1`: 1000 s.

Regarding `CC(=O)N1CCC2(CC1)OC(=O)C(C)=C2C(=O)NCCC1=CCCCC1`, the RP-LC retention time worked out at 738 s.

`CCN(CC)CCn1c(=O)c(Cc2ccc(OC)cc2)nc2ccccc21`: the RP-LC retention time came out at 720 s. Then `O=C(NCc1ccccn1)c1cccn1Cc1noc(-c2ccc(Cl)cc2)n1`, with 743 s.

`CCCCNC(=O)c1cc2n(n1)CC(C)(C(=O)NCc1ccc(F)cc1)N(C)C2=O` (stereo not drawn): the RP-LC retention time was 725 s. Take `CN(C)C(=O)Cn1c(=O)c2cccn2c2ccc(F)cc21`: the RP-LC retention time is 690 s. Next, `COc1ccccc1Cc1nc(-c2ccccc2)nn(C2OC(COC(C)=O)C(OC(C)=O)C(OC(C)=O)C2OC(C)=O)c1=S` (stereo not drawn): 1190 s; `CCN1C(=O)c2cccnc2Sc2cc(NC(=O)c3cc(C)ccc3C)ccc21`: 898 s. `O=C(c1ccc(=O)oc1)N1CCN(Cc2nc(-c3ccccc3)cs2)CC1` showed an RP-LC retention time of 637 s. For the compound `COc1cc(NC(=O)Cn2c(C)cc(-c3nnc(C)o3)c2C)cc(OC)c1`, the RP-LC retention time amounted to 748 s. As to `COc1cccc(-n2nnc(-c3nsc(Nc4ccc(OC)c(Cl)c4)n3)c2C)c1`, the RP-LC retention time came out at 1020 s. For the compound `CNc1nc(N2CCNC(=O)C2)nc2ccccc12`, the RP-LC retention time was 564 s. For `Cc1cc(F)ccc1NC(=O)c1csc(-c2ccc(N3CCCC3)nc2)n1`, the RP-LC retention time amounted to 768 s.

On to `COc1ccc(-c2nnc(-c3ccc(C)c(S(=O)(=O)Nc4ccc(Cl)cn4)c3)o2)cc1OC`, for which the RP-LC retention time came to 918 s. As for `COc1cccc(CN2C(=O)CSc3c(c4ccccc4n3C)C2C(=O)NCCCOC(C)C)c1` (stereo not drawn), the RP-LC retention time stood at 955 s. Next, `O=C(c1cn2nc(Cl)ccc2n1)N1CCN(c2ccccc2Cl)CC1`: 922 s. `Cc1cc(C)n(-c2ccnc(N3CCC(C(=O)N4CCN(c5ccccc5)CC4)CC3)n2)n1`: the RP-LC retention time is 907 s. `CCN1C(=O)c2cccnc2Sc2cc(NC(=O)CCc3cccc(OC)c3)ccc21` returned an RP-LC retention time of 855 s.

As for `OCCNCc1ccc(-c2cc(Cl)cc(Cl)c2)o1`, the RP-LC retention time amounted to 676 s.
